Results on 44 compounds are retold here after PubChem BioAssay (NCI).

Molecules are shown by their SMILES.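 The compound was tested at five concentrations on cells cultured in 96-well plates, with a 48-hour exposure period. TGI denotes the concentration required for complete inhibition of growth.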 Where only a bound is given, the exact number is not on record here.

What all share (experiment): DTP human tumour cell line panel, 48 h
The subject of test [1] is HCT-15 colon.
The test system of test [2] is U251 CNS.
Test [3] deals with RXF 393 renal.
The subject of test [4] is NCI-H460 lung.
For test [5], the system named is TK-10 renal.
For test [6], the system named is HOP-62 NSCLC.

As usually defined, the TGI is the concentration at which net growth stops. The low end stands for more potent growth arrest, the high end for less potent growth arrest.

On to `O=C1C(Cl)C2(CC(/C=C/c3ccccc3)=NN2c2cccc(S(=O)(=O)O)c2)N1c1nc2ccccc2s1` (centres undefined), for which the TGI in test [1] is 38.8 µM; in test [2], 32.1 µM; in test [3], 42.3 µM; in test [4], 46.6 µM; in test [5] it was 30.9 µM.

Regarding `CC1CN=C(N(Cc2ccccc2)C(=O)Nc2ccc(Cl)c(Cl)c2)S1` (centres undefined), the concentration for total growth inhibition (TGI) in test [1], in test [2], in test [4], in test [5] and in test [6] was above 100 µM each time.

With `CCOC(=O)c1sc2nc(SC)nc3c2c1NCN3c1ccc2c(c1)OCO2`, the TGI in test [1] was above 100 µM; in test [2], 23.1 µM; in test [3] it was 10.3 µM; in test [5] it was 43.7 µM; in test [6], 18.7 µM.

Turning to `N[C@H](C(=O)O)[C@@H]1CC(Br)=NO1`, the TGI in test [1], in test [2], in test [3], in test [4], in test [5] and in test [6] was above 100 µM each time.

In the case of `COc1cc(O)c2c(=O)c(O)c(-c3ccc(O)c(OC)c3)oc2c1`, the TGI in test [1] was above 100 µM; in test [2], 18.1 µM; in test [4], above 100 µM; in test [5] it was above 100 µM.

Turning to `N#Cc1nc(-c2ccco2)oc1N`, the concentration for total growth inhibition (TGI) in test [1], in test [3], in test [4], in test [5] and in test [6] was above 10 µM throughout.

As to `O=C(c1cccs1)N(C(=S)OCCOc1ccccc1)c1ccccc1`, the TGI was 84.7 µM in test [1]; 48.8 µM in test [2]; 51.9 µM in test [3]; above 100 µM in test [4]; above 100 µM in test [5]; 72.5 µM in test [6].

For `C=C1CC(c2ccc(OCCCN3C(=O)c4ccccc4C3=O)cc2)OC1=O` (centres undefined), the TGI in test [1] was determined as 6.84 µM; in test [2] it was 10.7 µM; in test [3], 3.65 µM; in test [4] it was 8.42 µM; in test [5], 14.5 µM; in test [6], 33.2 µM.

Take `CCOC(=O)C(C(=O)OCC)=C1NC2(c3ccccc3Nc3ccccc32)C(C#N)S1` (centres undefined): the concentration for total growth inhibition (TGI) in test [1] is 19.6 µM; in test [2], 24.5 µM; in test [3] it was 33 µM; in test [4], 15.2 µM; in test [5], 38.6 µM; in test [6] it was 27 µM.

For `O=C(c1ccccc1)N(C(=O)c1ccccc1)c1nc(SCc2ccccc2)ns1`, the concentration for total growth inhibition (TGI) in test [1] is 65.3 µM; in test [2], 37.8 µM; in test [3], above 100 µM; in test [4], 56.2 µM; in test [5], 84.5 µM; in test [6], 87.1 µM.

Regarding `N#Cc1c2c(c(N)oc1=O)C(c1ccccc1)CC(=O)N2` (centres undefined), the concentration for total growth inhibition (TGI) in test [1], in test [2], in test [3], in test [4], in test [5] and in test [6] was above 100 µM in each case.

In the case of `COc1ccc(OC)c(N(CN2C(=O)CCC2C(=O)O)C(C)=O)c1` (centres undefined), the TGI in test [1], in test [2], in test [5] and in test [6] was above 100 µM each time.

Turning to `O=C(NC1CCN(Cc2ccccc2)CC1)c1ccc(I)cc1`, the TGI in test [1] was above 100 µM; in test [2], above 100 µM; in test [3] it was 85.7 µM; in test [4] it was above 100 µM; in test [5] it was above 100 µM; in test [6], above 100 µM.

Turning to `COC(=O)c1ccc2c(c1)S/C(=C/c1ccc3ccc4cccc5ccc1c3c45)S2`, the TGI in test [1], in test [2], in test [3], in test [4], in test [5] and in test [6] was above 100 µM in each case.

For the compound `CC(C)(C)C1=CC(C)(n2[nH]c(=O)n(-c3ccccc3)c2=O)C=C(C(C)(C)C)C1=O`, the concentration for total growth inhibition (TGI) in test [1], in test [2], in test [4] and in test [5] was above 100 µM throughout.

As for `CCCCc1ccc(-n2sc3ncc(C)cc3c2=O)cc1`, the TGI was 59.1 µM in test [1]; above 100 µM in test [2]; 73.8 µM in test [3]; above 100 µM in test [4]; above 100 µM in test [5]; above 100 µM in test [6].

With `CCOC(=O)C(=CNc1ccc(NC2=NCC(C)S2)cc1)C(=O)OCC` (centres undefined), the total growth inhibition concentration (TGI) in test [1] is above 100 µM; in test [2], above 100 µM; in test [3] it was 97.1 µM; in test [4] it was above 100 µM; in test [5], above 100 µM; in test [6] it was above 100 µM.

On to `CCOP1(=O)CC(C)=C(Cl)C(O)C1` (centres undefined), for which the total growth inhibition concentration (TGI) in test [1], in test [2], in test [3], in test [4], in test [5] and in test [6] was above 100 µM throughout.

`COc1ccc(/C=N/n2c(C)n[nH]c2=O)c(OC)c1`: the concentration for total growth inhibition (TGI) in test [1], in test [2], in test [4] and in test [6] was above 100 µM each time.

For `COC(=O)C(CCSC)NC(=O)CNC(=O)CSc1nnc(COc2ccc(Cl)cc2)n1-c1ccccc1` (centres undefined), the total growth inhibition concentration (TGI) in test [1] was 37.8 µM; in test [2], 31 µM; in test [3] it was 35.9 µM; in test [4], 31.7 µM; in test [5] it was 31.4 µM; in test [6] it was 34.9 µM.

With `COc1c(=O)cc2cc[nH]c3ccn(C)c1c23`, the concentration for total growth inhibition (TGI) in test [1], in test [2], in test [3], in test [4], in test [5] and in test [6] was above 100 µM each time.

For the compound `Clc1cc(Cl)cc(N=C/C=C/Nc2cc(Cl)cc(Cl)c2)c1`, the concentration for total growth inhibition (TGI) in test [1] was found to be 30.6 µM; in test [2] it was 33.5 µM; in test [3], 36.8 µM; in test [4], 43.5 µM; in test [5], 87 µM; in test [6] it was 51.8 µM.

Take `CC1=NN(c2nc(N)nc(/C(C#N)=C\c3csc([N+](=O)[O-])c3)n2)C(C)(C)C1`: the TGI was above 100 µM in test [1]; 39.4 µM in test [2]; 44.7 µM in test [3]; above 100 µM in test [4]; 95.5 µM in test [5]; 64.6 µM in test [6].

As to `O=[N+]([O-])/C(C(Cl)=C(Cl)Cl)=C(/Cl)SCc1ccccc1`, the TGI in test [1] is 19.2 µM; in test [2], 25.1 µM; in test [3], 9.35 µM; in test [4], 31.2 µM; in test [5], 18.9 µM; in test [6], 30 µM.

In the case of `O=[N+]([O-])c1ccc(C(=S)Nc2ccccc2)o1`, the concentration for total growth inhibition (TGI) in test [1] was 7.07 µM; in test [2], 3.05 µM; in test [3], 15.2 µM; in test [4] it was 12.1 µM; in test [5], 14.1 µM; in test [6], 9.08 µM.

For `[N-]=[N+]=NI1OC(=O)c2ccccc21`, the total growth inhibition concentration (TGI) in test [1], in test [2], in test [3], in test [5] and in test [6] was above 100 µM in each case.

In the case of `CC1(C)OC(=S)N(c2ccccc2)C12C=Cc1ccccc1O2` (centres undefined), the TGI in test [1], in test [2], in test [3], in test [4], in test [5] and in test [6] was above 100 µM in each case.

`COC(=O)[C@]1(NC(=O)c2ccccc2)C[C@H]1C=O`: the TGI in test [1] is above 100 µM; in test [2], above 100 µM; in test [3] it was above 100 µM; in test [4], 77 µM; in test [5], above 100 µM; in test [6], above 100 µM.

For `NC(=O)C(=CNC(=S)Nc1ccccc1)C(N)=O`, the concentration for total growth inhibition (TGI) in test [1], in test [2], in test [3], in test [4] and in test [6] was above 100 µM each time.

Turning to `CC(=O)OCC(=O)O[C@@H]1[C@H]2[C@@H](OC(=O)c3ccccc3)[C@@H](C)C[C@]2(O)[C@H](OC(C)=O)[C@@]2(C)C(OC(C)=O)[C@]1(OC(C)=O)C[C@H]1C(=O)C(C)(C)C[C@@H]12` (some centres undefined), the TGI in test [1], in test [2], in test [3], in test [4], in test [5] and in test [6] was above 50 µM throughout.

For the compound `NNC(=O)c1c(-c2cccnc2)cnc2ccccc12`, the total growth inhibition concentration (TGI) in test [1], in test [2], in test [3], in test [4], in test [5] and in test [6] was above 100 µM in each case.

For the compound `COc1cc2c(c(O)c1OC)C(=O)[C@@H]1CCC(=O)N1C2`, the TGI in test [1], in test [2], in test [4], in test [5] and in test [6] was above 100 µM in each case.

Regarding `Oc1ccc2cc(Br)ccc2c1-c1c(O)ccc2ccc(Br)cc12`, the TGI in test [1] stood at 29 µM; in test [2] it was 28 µM; in test [4], 15.3 µM; in test [5], 31.2 µM; in test [6], 28.5 µM.

For `O=C(/C=C/c1ccccc1)Oc1ccc(C(=O)/C=C/c2ccc(Cl)cc2)cc1`, the TGI in test [2], in test [3], in test [4], in test [5] and in test [6] was above 100 µM in each case.

`CCOC(=O)C1(F)S(=O)(=O)OCCOS1(=O)=O`: the TGI in test [1], in test [2], in test [3], in test [5] and in test [6] was above 100 µM in each case.

As to `c1cc2nnc1SCCCSc1ccc(nn1)SCCCS2`, the TGI in test [1] is above 100 µM; in test [2] it was above 86.9 µM; in test [3] it was 75.5 µM; in test [4], above 100 µM; in test [5] it was 98.8 µM; in test [6], above 93.1 µM.

For the compound `CC1(c2nc3ccccc3[nH]2)CCC(C(=O)O)C(C)(C)O1` (centres undefined), the total growth inhibition concentration (TGI) in test [1], in test [2], in test [3], in test [5] and in test [6] was above 100 µM each time.

For `CCC1OC2C(CC=C(C)C)=C3OC(C)(O)C(C)(CC)C(OC(C)=O)C3=C3OC(=O)C=C1C32` (centres undefined), the total growth inhibition concentration (TGI) in test [1] was above 100 µM; in test [2], above 100 µM; in test [4], 84.6 µM; in test [5], above 100 µM; in test [6] it was 60.1 µM.

As for `CCOC(=O)c1nc2cc(C(F)(F)F)ccc2nc1Nc1ccc(OC)cc1`, the total growth inhibition concentration (TGI) in test [1], in test [3], in test [5] and in test [6] was above 100 µM in each case.

`CCOC(=O)NNC(=O)NCc1cccc(CNC(=O)NNC(=O)OCC)c1`: the TGI in test [1], in test [2], in test [3], in test [4] and in test [5] was above 100 µM throughout.

With `CCc1c(C)c(C#N)c(=S)n(C2OC(COC(C)=O)C(OC(C)=O)C(OC(C)=O)C2OC(C)=O)c1-c1ccccc1` (centres undefined), the TGI in test [1] is above 31.6 µM; in test [2] it was 31 µM; in test [4] it was above 31.6 µM; in test [5], above 31.6 µM; in test [6] it was above 31.6 µM.

As to `CCOC(=O)CNC(=O)C(CSC(=O)N(O)c1ccc(Cl)cc1)NC(=O)CCC(N)C(=O)OCC` (centres undefined), the TGI in test [1], in test [2], in test [3], in test [4] and in test [6] was above 50 µM each time.

Turning to `COC(=O)c1ccc(S)c(S(=O)(=O)Nc2n[nH]c(N)n2)c1`, the TGI in test [1], in test [2], in test [4] and in test [5] was above 100 µM each time.

As to `COc1ccc(OC)c(CNc2ccc(C(=O)O)cc2)c1`, the TGI in test [1], in test [2] and in test [5] was above 100 µM throughout.
